Source: publication PMC10042774, “Theoretical and molecular mechanistic investigations of novel (3-(furan-2-yl)pyrazol-4-yl) chalcones against lung carcinoma cell line (A549)” (Naunyn-Schmiedeberg's Archives of Pharmacology, 2022)
≈ marks a conversion by molar mass, not a printed value. Where “and” joins values, the source holds several entries; their conditions need not be identical. Equal values may be shown once.

Assays:
[1] = tested on: lung carcinoma (A549) cell line; experiment: MTT assay against lung carcinoma (A549) cell line; type: cell-based, human; settings: for IC50 values, Lung carcinoma (A549): 48 h; for IC50: Homo sapiens, A549, 48 h
Source text: (§1) In vitro inhibition activity of the newly synthesized series was investigated on cell viability according to the literature review described by Mohamed et al. (Mohamed et al. [2021b]). In a brief explanation of MTT assay employed herein. In vitro, toxicological MTT Kit has been used to perform an (3-[4,5-dimethylthiazole-2-yl]-2,5-diphenyltetrazolium bromide) to measure the cytotoxicity effect of a novel (3-(Furan-2-yl)pyrazol-4-yl) chalcones against A549 cell line. Lung carcinoma cell line A549 was seeded in microplate where the prepared chalcones solution were added to triplicates well. Incubation of plates was done at 37 °C for 48 h. The fresh […]. Lung cells treated with different range concentration of our series [[…]] were incubated, also untreated cells were used as a reference negative control. One percent antibiotic mixture was used, and after incubation. The positive control utilized here was 5-FU ([…]).

[2] = tested on: normal lung (Wi38) cell line; experiment: MTT assay against normal lung (Wi38) cell line; type: cell-based; settings: Homo sapiens, WI-38, 48 h
Source text: [Worded in the source for another cell line; this cell line is reported under the same test.] as §1

Bcl2 = experiment: Real-time PCR of Bcl2 expression in A549 cells; type: cell-based, human; settings: IC50 conc., 48 h, qPCR, untreated control = 1
Procedure: (§2) Total RNAfrom the compound 7b-, compound 7c-treated A549 cells, and untreated cells were extracted using the Qiagen RNAextraction Kit, Catalog # (74,104). 1 µg of RNAwas reverse transcribed into complementary DNA(cDNA) using High-Capacity cDNA Reverse Transcription Kit (Thermo Fisher scientific, ON, Canada). qPCR was performed using Bio RadSYBR Green qPCR master mix (Bio Rad, California, USA) in a Step One Plus Real-Time PCRSystem (Bio Rad, California, USA). The total reaction volume was 25 µL, 12.5 µL of SYBRgreen master mix, 1 µL of each primer (Bax, Bcl2, P53, CDK4) with 10 pmol/µL (Qiagen, CA, Germany), 2.5 µL of cDNA, and […] of RNAse free water. The thermal cycle of PCR started with an initial denaturation at 95 °C for 10 min, followed by 45 cycles at 94 °C for15 s, 65 °C for 30 s, and 56 °C for 30 s. The relative gene expression was determined using the method of 2^−ΔΔCtafter normalization to the expression of β-actin (Qiagen, CA, Germany) (10 pmol/µL). […]

CDK4 = experiment: Real-time PCR of CDK4 expression in A549 cells; type: cell-based, human; settings: IC50 conc., 48 h, qPCR, untreated control = 1
Procedure: as §2

human caspase-9 = experiment: ELISA of caspase-9 in A549 cell lysates; type: cell-based; settings: A549 cells, IC50 conc., 48 h, untreated control 1.49
Procedure: (§3) Elisa assay was performed to detect the concentration of human caspase-3, caspase-8, and caspase-9 in A549 cell culture lysates. The instructions were followed up according to the manuscript instructions described in the following kits: DRG® human Caspase-8 ELISA Kit, Catalogue # (EIA-4863), DRG® human Caspase-9 ELISA Kit, Catalogue # (EIA-4860), and Invitrogen human Caspase-3 Elisa Kit, Catalogue # KHO1091, respectively. All reagents, samples, and standards were prepared as described in the above ELISA kits. Briefly, the procedure was described as followed; the microwell strips were washed twice with wash buffer. A total of 100 μl of standard or samples were added to each well and incubated for 2 h at room temperature (18 to 25 °C). The microwell strips were emptied and washed three times with wash buffer. A total of 100 μl of prepared antibodyanti-rabbit-IgG-HRP) were added to each well for 1 h at room temperature. The step of washing was repeated three times and then, 100 μl of prepared TMB (tetramethyl-benzidine) substrate solution was pipetted to all wells and incubated for 10 min at room temperature. […] The absorbance of each microwell was read immediately on a spectrophotometer at a wavelength of 450 nm. The concentrations of the unknown samples and controls were determined from the standard curve which was plotted using curve fitting software.

BAX = experiment: Real-time PCR of BAX expression in A549 cells; type: cell-based, human; settings: IC50 conc., 48 h, qPCR, untreated control = 1
Procedure: as §2

A549 cells [3] = experiment: Flow-cytometric analysis of cell cycle (PI); type: cell-based, human; settings: IC50 conc., 48 h
Procedure: (§4) 10^6 of A549 cells were cultured in 60-mm Petri dishes for 24 h and then treated with compound 7batIC50concentrationfor 48 h. The untreated A549 cells were used as a negative control. After 48 h of incubation, A549 cells were centrifuged at1000 rpm for 5 min at 4 °C. The cells pellet were washed in phosphate-buffered saline (PBS) and then centrifuged at 1000 rpm for another 5 min. After discarding the supeRNAtant, the cells were collected in a single cell suspension and fixed in 70% ethanol on ice overnight. After the fixation step, cells were washed with 1 ml 1 × PBS. Finally, the cells pellet was incubated with a 200 µl 1 × propidium iodide (PI) mixture at room temperature in the dark for 30 min. Then, cells were subjected to an Epics XL-MCL flow cytometer (Beckman Coulter, Miami, FL) for DNA content analysis. Cells distribution at different phases was analysed by Multicycle software (Phoenix Flow Systems, San Diego, CA). Annexin V-FITC kit catalogue number (#K101-25) was used to detect the percentage of the apoptotic cells. About 10^6 of A549 cells were collected by centrifugation. Then, cells were washed in 500 µl of 1 × PBS. The cells were collected by centrifugation and then resuspended in the annexin V incubation reagent. The annexin V incubation reagent comprising of 10 μL binding buffer (10X) + 10 μL propidium iodide + 1 μL annexin V-FITC + 79 μL deionized water. The cells in 100 μL annexin V incubation reagent was incubated in dark at room temperature for 15 min (Ali et al. [2017]). Finally, the percentage of apoptotic cells was analyzed by flow cytometry using FITC signal detector (usually FL-1) and PI staining by the phycoerythrin emission signal detector (usually FL-2).

human caspase-3 = experiment: ELISA of caspase-3 in A549 cell lysates; type: cell-based; settings: A549 cells, IC50 conc., 48 h, untreated control 53.69
Procedure: as §3

A549 cells [4] = experiment: Flow-cytometric analysis of apoptosis (Annexin V-FITC/PI); type: cell-based, human; settings: IC50 conc., 48 h
Procedure: as §4

P53 = experiment: Real-time PCR of P53 expression in A549 cells; type: cell-based, human; settings: IC50 conc., 48 h, qPCR, untreated control = 1
Procedure: as §2

human caspase-8 = experiment: ELISA of caspase-8 in A549 cell lysates; type: cell-based; settings: A549 cells, IC50 conc., 48 h, untreated control 0.375
Procedure: as §3

Row | Structure (SMILES) | IC50 values, Lung carcinoma (A549) [1] [µg/mL] | IC50 [1] [µg/mL] | IC50 [2] [µg/mL] | melting point [°C] | also measured
1 | O=c1[nH]cc(F)c(=O)[nH]1 [5-FU, reference compound] | 147.29 (≈ 1130 µM) | – | – | – | –
2 | Cc1c(C(=O)/C=C/c2ccco2)c(-c2ccco2)nn1-c1ccc([N+](=O)[O-])cc1 [7a, (E)-3-(Furan-2-yl)-1-(3-(furan-2-yl)-5-methyl-1-(4-nitrophenyl)-1H-pyrazol-4-yl)prop-2-en-1-one] | – | 42.7 (≈ 110 µM) | 68 (≈ 175 µM) | 138 to 140 | –
3 | Cc1c(C(=O)/C=C/c2cccs2)c(-c2ccco2)nn1-c1ccc([N+](=O)[O-])cc1 [7b, (E)-1-(3-(Furan-2-yl)-5-methyl-1-(4-nitrophenyl)-1H-pyrazol-4-yl)-3-(thiophen-2-yl)prop-2-en-1-one] | 20.05 (≈ 49.5 µM) | 20 (≈ 49.3 µM) | 108 (≈ 267 µM) | 142 to 144 | Gene expression (fold change/ β-actin), Bcl2 (Bcl2): 0.44 fold change; Gene expression (fold change/ β-actin), CDK4 (CDK4): 0.39 fold change; Enzyme activity ± SD, Caspase 9 (human caspase-9): 15.76 ± 0.06 pg/mL; Gene expression (fold change/ β-actin), BAX (BAX): 7.93 fold change; Cell cycle arrest (phase) (A549 cells [3]): cell cycle arrest at G0/G1 and S phases; G2/M % (DNA content) (A549 cells [3]; untreated control 15.63): 4.21%; S % (DNA content) (A549 cells [3]; untreated control 37.15): 43.42%; G0/G1% (DNA content) (A549 cells [3]; untreated control 47.22): 52.37%; Enzyme activity ± SD, Caspase 3 (human caspase-3): 495.4 pg/mL and 495.4 ± 6.52 pg/mL; Apoptosis % % Late (A549 cells [4]; untreated control 0.11): 21.24%; Apoptosis % % Early (A549 cells [4]; untreated control 0.34): 3.69%; Necrosis% (A549 cells [4]; untreated control 1.26): 17.23%; Apoptosis % %Total (A549 cells [4]; untreated control 1.71): 42.16%; Gene expression (fold change/ β-actin), P53 (P53): 4.69 fold change; Enzyme activity ± SD, Caspase 8 (human caspase-8): 1.575 ± 0.05 pg/mL
4 | Cc1c(C(=O)/C=C/c2ccncc2)c(-c2ccco2)nn1-c1ccc([N+](=O)[O-])cc1 [7c, (E)-1-(3-(Furan-2-yl)-5-methyl-1-(4-nitrophenyl)-1H-pyrazol-4-yl)-3-(pyridin-4-yl)prop-2-en-1-one] | – | 13.9 (≈ 34.6 µM) | 18.2 (≈ 45.5 µM) | 198 to 200 | Gene expression (fold change/ β-actin), Bcl2 (Bcl2): 0.61 fold change; Gene expression (fold change/ β-actin), CDK4 (CDK4): 0.54 fold change; Enzyme activity ± SD, Caspase 9 (human caspase-9): 11.2 pg/mL and 11.2 ± 0.52 pg/mL; Gene expression (fold change/ β-actin), BAX (BAX): 4.78 fold change; Enzyme activity ± SD, Caspase 3 (human caspase-3): 377.2 pg/mL and 377.2 ± 6.04 pg/mL; Gene expression (fold change/ β-actin), P53 (P53): 2.32 fold change; Enzyme activity ± SD, Caspase 8 (human caspase-8): 1.042 pg/mL and 1.042 ± 0.02 pg/mL
5 | Cc1c(C(=O)/C=C/c2nn(-c3ccccc3)cc2-c2ccccc2)c(-c2ccco2)nn1-c1ccc([N+](=O)[O-])cc1 [7d, (E)-3-(1,4-Diphenyl-1H-pyrazol-3-yl)-1-(3-(furan-2-yl)-5-methyl-1-(4-nitrophenyl)-1H-pyrazol-4-yl)prop-2-en-1-one] | 76.52 (≈ 141 µM) | 76.5 (≈ 141 µM) | 261 (≈ 483 µM) | 168 to 170 | –
6 | Cc1ccc(-c2cn(-c3ccccc3)nc2/C=C/C(=O)c2c(-c3ccco3)nn(-c3ccc([N+](=O)[O-])cc3)c2C)cc1 [7e, (E)-1-(3-(Furan-2-yl)-5-methyl-1-(4-nitrophenyl)-1H-pyrazol-4-yl)-3-(1-phenyl-4-(p-tolyl)-1H-pyrazol-3-yl)prop-2-en-1-one] | – | 217 (≈ 391 µM) | 296 (≈ 532 µM) | 248 to 250 | –
7 | COc1ccc(-c2cn(-c3ccccc3)nc2/C=C/C(=O)c2c(-c3ccco3)nn(-c3ccc([N+](=O)[O-])cc3)c2C)cc1 [7f, (E)-1-(3-(Furan-2-yl)-5-methyl-1-(4-nitrophenyl)-1H-pyrazol-4-yl)-3-(4-(4-methoxyphenyl)-1-phenyl-1H-pyrazol-3-yl)prop-2-en-1-one] | – | 238 (≈ 416 µM) | 296 (≈ 518 µM) | 232 to 234 | –
8 | Cc1c(C(=O)/C=C/c2nn(-c3ccccc3)cc2-c2ccc(Cl)cc2)c(-c2ccco2)nn1-c1ccc([N+](=O)[O-])cc1 [7g, (E)-3-(4-(4-Chlorophenyl)-1-phenyl-1H-pyrazol-3-yl)-1-(3-(furan-2-yl)-5-methyl-1-(4-nitrophenyl)-1H-pyrazol-4-yl)prop-2-en-1-one] | – | 251 (≈ 437 µM) | 379 (≈ 658 µM) | 242 to 244 | –
9 | Cc1c(C(=O)/C=C/c2nn(-c3ccccc3)cc2-c2ccc([N+](=O)[O-])cc2)c(-c2ccco2)nn1-c1ccc([N+](=O)[O-])cc1 [7h, (E)-1-(3-(Furan-2-yl)-5-methyl-1-(4-nitrophenyl)-1H-pyrazol-4-yl)-3-(4-(4-nitrophenyl)-1-phenyl-1H-pyrazol-3-yl)prop-2-en-1-one] | – | 211 (≈ 360 µM) | 224 (≈ 382 µM) | 242 | –
